The text below walks through data of paper PMC9360399, “Alterations to the broad-spectrum formin inhibitor SMIFH2 modulate potency but not specificity” (Scientific Reports, 2022).

“Also recorded” adds a separate entry of the source.

In one series the target is T1, DIAPH2 (Homo sapiens, UniProt O60879).
T1 construct: UniProt O60879-2, aa 553–1096; 6-histidine tag (N); made in house; host or cells: ROSETTA-DE3 E. coli
Put plainly: pyrene-actin polymerization assay, DIAPH2-FFC. In kind it is biochemical. The method, then:
(§1) Several SMIFH2 analogs are known to retain or lose inhibitory activity against mDia1[18]. We sought to expand this dataset to more extensively characterize structure–activity relationships in the SMIFH2/formin complex. All 17 analogs shown in Fig. 4 were synthesized according to the scheme described in the Experimental Procedures (Fig. 6) and characterized by proton NMR (Fig. S8). Each inhibitor was tested for potential interaction with actin in the absence of formin (Figs. S3, S4). […] This panel of 18 inhibitors was tested against five formin FFC fragments (DIAPH1, DIAPH2, INF2, FMNL3, and FMN2), and the IC50 values were measured (Fig. 4 and Table 1). One notable trend in this dataset is that the lack of specificity, noted above for SMIFH2 (Fig. 3), holds for its analogs: no modifications made to SMIFH2 led to a selective inhibitor, at least among the five formins that were tested.
(§2) Figure 4 Structure activity data for SMIFH2 and 17 analogs tested against five human formins. Each individual data point indicates an IC50 value from a titration of inhibitor in the pyrene-actin assembly assay. Conditions: 2 µM actin (5% pyrene-labeled), 4 µM S. pombe profilin, formin (5 nM DIAPH1-FFC, 5 nM DIAPH2-FFC, 5 nM INF2-FFC, 20–37.5 nM FMN2-FFC, 20 nM FMNL3-FFC), inhibitor with a fixed volume of DMSO. […] Because we cannot reliably measure IC50 values above 40 µM, those points are indicated at the > 40 µM line.
(§3) Assays were carried out as described. Rabbit skeletal muscle actin (5% pyrene labeled) was incubated for 2 min at 25 °C with 200 μM EGTA and 50 μM MgCl2 to convert Ca-actin to Mg-actin. When included in the experiment, a 2:1 molar ratio of profilin was incubated with actin for 2 min at 25 °C before conversion to Mg-actin. Polymerization was initiated by adding polymerization buffer (KMEH, final concentration: 10 mM HEPES, pH 7.0, 1 mM EGTA, 50 mM KCl, 1 mM MgCl2). Prior to mixing KMEH with actin, formins and then the inhibitor in DMSO or DMF was added at ≤ 1% of the total volume. Finally, this mixture was rapidly mixed with Mg-actin, with approximately 10–20 s dead time prior to measurement. Fluorescence was monitored every 15 s using a TECAN F200 Pro with λex = 360 ± 17 nm and λem = 415 ± 10 nm. The same volume of organic solvent (DMSO or DMF) was added to each well regardless of inhibitor concentration.

In the next series the target is T2, INF2 (Homo sapiens, UniProt Q27J81).
T2 construct: UniProt Q27J81-1, aa 469–1249; 6-histidine tag (N); made in house; host or cells: ROSETTA-DE3 E. coli
T2 sequence (Q27J81 469-1249): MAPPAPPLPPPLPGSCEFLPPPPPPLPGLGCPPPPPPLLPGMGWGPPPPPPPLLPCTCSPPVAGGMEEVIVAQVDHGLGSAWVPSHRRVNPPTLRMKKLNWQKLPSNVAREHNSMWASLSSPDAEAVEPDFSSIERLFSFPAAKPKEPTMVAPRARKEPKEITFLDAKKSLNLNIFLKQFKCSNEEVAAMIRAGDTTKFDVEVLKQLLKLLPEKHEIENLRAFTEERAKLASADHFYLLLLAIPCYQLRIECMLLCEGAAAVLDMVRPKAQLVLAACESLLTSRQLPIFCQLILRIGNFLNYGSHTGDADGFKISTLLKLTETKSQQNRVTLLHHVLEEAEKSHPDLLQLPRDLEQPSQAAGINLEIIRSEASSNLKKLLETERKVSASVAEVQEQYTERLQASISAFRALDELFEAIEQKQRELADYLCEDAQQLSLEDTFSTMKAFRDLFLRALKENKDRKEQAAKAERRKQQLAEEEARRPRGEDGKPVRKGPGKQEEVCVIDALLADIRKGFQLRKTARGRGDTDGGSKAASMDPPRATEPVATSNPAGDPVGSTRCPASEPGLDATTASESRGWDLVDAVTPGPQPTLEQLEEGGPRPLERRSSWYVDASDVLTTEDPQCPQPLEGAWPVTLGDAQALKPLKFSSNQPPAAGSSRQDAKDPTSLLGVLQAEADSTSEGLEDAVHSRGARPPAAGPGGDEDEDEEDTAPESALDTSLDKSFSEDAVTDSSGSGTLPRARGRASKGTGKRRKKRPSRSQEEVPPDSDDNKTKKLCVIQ
The series is described as follows: pyrene-actin polymerization assay, INF2-FFC. It counts as biochemical. Here is the method: as §1, §2, §3

For another series, the target named is T3, FMNL3 (Homo sapiens, UniProt Q8IVF7).
T3 construct: UniProt Q8IVF7-1, aa 481-1028; 6-histidine tag (N); made in house; host or cells: ROSETTA-DE3 E. coli
T3 sequence (Q8IVF7 481-1028): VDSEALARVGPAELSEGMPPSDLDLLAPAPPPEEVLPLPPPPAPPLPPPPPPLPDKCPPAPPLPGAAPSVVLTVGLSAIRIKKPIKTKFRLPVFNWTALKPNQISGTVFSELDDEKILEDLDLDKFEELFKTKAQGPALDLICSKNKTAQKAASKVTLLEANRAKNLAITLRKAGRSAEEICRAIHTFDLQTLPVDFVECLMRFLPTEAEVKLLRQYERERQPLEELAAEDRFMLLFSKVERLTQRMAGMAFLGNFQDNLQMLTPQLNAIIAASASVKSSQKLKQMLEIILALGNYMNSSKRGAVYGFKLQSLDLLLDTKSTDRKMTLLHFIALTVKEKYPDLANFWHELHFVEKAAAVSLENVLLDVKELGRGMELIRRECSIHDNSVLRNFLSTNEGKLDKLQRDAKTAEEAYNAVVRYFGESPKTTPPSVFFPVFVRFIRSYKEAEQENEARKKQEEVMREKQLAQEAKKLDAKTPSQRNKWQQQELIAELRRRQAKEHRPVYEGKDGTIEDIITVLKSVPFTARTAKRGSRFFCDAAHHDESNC
Put plainly: pyrene-actin polymerization assay, FMNL3-FFC. It counts as biochemical. The method, then:
as §1, §2, §3

Another series addresses DIAPH1 (Homo sapiens, UniProt O60610). Put plainly: pyrene-actin polymerization assay, DIAPH1-FFC. It counts as biochemical. Here is the method: as §1, §2, §3
Another series has as its target T4, FMN2 (Homo sapiens, UniProt Q9NZ56).
T4 construct: UniProt Q9NZ56-1, aa 1192-1722; 6-histidine tag (N); made in house; host or cells: ROSETTA-DE3 E. coli
Put plainly: pyrene-actin polymerization assay, FMN2-FFC. In kind it is biochemical. Here is the method: as §1, §2, §3

The next series deals with human formins. Put plainly: pyrene-actin polymerization assay, panel of human formin FFC fragments. It counts as biochemical. As to conditions: for inhibitory activity against formins tested (in words): five formin FFC fragments (DIAPH1, DIAPH2, INF2, FMNL3, FMN2); for fold change in potency (IC50) compared with SMIFH2 (1): depending on the formin. Here is the method: Figure 3 SMIFH2 has broad activity across the human formins. For each titration, pyrene fluorescence was monitored for 2 μM actin (5% pyrene-labeled)/ 4 μM S. pombe profilin. […] Increasing concentration of SMIFH2 is indicated by blue traces, with the µM concentration labeled to the right of each plot. The volume of DMSO added was the same for all traces, regardless of SMIFH2 concentration.
To characterize the specificity of SMIFH2, we titrated the inhibitor against each purified formin, controlling for the volume of DMSO for all polymerization reactions (Fig. 3, as indicated by blue traces).
as §1, §3

A further series in a line: solubility in DMSO. It counts as physicochemical. As to conditions: had to be dissolved in DMF for assays.
A further series concerns Drosophila myosin 5. More on the design: method as in PMID 33589498. As to conditions: read-out: IC50 actin-induced ATPase activity of Drosophila myosin 5; cited from earlier work.
A further series deals with formin. Details: method as in PMID 33589498. As to conditions: read-out: IC50 formin/mediated actin interactions; cited from earlier work.
The test system of a further series is mouse Dia1. Details: method as in PMID 19942139. As to conditions: reported value; cited from earlier work.

T4 sequence (Q9NZ56 1192-1722): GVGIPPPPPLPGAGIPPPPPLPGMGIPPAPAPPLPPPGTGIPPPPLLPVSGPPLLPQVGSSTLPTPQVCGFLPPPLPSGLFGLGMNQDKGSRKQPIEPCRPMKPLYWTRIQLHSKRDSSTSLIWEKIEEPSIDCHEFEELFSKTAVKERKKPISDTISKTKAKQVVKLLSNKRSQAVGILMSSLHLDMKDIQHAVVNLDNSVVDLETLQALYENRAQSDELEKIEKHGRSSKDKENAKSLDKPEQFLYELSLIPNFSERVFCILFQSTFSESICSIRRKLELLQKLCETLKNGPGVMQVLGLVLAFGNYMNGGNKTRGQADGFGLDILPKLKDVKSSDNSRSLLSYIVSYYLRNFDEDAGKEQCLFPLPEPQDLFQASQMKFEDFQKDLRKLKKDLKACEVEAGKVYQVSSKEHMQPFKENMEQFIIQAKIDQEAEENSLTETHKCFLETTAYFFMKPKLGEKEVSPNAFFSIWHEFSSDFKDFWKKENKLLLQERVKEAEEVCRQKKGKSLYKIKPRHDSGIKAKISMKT
T1 sequence (O60879 553-1096 isoform O60879-2): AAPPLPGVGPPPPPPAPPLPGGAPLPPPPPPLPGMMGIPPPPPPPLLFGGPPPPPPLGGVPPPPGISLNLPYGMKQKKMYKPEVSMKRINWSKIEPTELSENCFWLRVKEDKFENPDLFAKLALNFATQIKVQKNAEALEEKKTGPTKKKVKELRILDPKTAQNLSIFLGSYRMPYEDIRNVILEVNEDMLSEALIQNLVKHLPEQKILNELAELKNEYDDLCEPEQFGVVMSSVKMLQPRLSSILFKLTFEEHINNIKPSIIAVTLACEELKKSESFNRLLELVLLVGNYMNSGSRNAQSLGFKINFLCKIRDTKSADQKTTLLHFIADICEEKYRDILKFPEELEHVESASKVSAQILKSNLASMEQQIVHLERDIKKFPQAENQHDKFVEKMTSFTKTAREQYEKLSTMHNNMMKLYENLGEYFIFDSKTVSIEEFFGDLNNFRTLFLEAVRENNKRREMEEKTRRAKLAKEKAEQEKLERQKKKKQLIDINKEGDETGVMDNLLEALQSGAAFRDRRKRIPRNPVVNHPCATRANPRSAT
Sequence of DIAPH1 (O60610 769-1222 limits assumed): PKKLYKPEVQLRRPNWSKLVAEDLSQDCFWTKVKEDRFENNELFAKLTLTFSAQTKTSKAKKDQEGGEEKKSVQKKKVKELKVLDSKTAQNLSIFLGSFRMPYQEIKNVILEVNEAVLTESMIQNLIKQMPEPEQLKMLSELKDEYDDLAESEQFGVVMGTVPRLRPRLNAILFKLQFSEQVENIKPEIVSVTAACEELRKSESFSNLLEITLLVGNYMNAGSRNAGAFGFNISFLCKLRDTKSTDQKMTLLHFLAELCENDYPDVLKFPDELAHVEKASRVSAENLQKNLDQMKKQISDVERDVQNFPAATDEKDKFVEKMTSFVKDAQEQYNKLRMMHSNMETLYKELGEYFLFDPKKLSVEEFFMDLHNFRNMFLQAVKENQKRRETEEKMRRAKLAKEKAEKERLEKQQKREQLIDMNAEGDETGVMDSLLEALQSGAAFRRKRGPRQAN

For `O=C1NC(=S)N(c2ccc(Br)cc2)C(=O)C1=Cc1ccc(Cl)o1` [Compound 14], the IC50 against DIAPH2 is 4 ± 1 µM; against INF2 it was 8 ± 1 µM; at FMNL3, 10 µM; against DIAPH1 it was 14 ± 2 µM; at FMN2, 15 µM.
Turning to `O=C1NC(=S)N(c2cccc(Br)c2)C(=O)C1=Cc1ccc(Br)o1` [Compound 16], the IC50 was 9 ± 1 µM against DIAPH2; 7 ± 3 µM at INF2; 14 ± 5 µM against FMNL3; 30 ± 10 µM against DIAPH1; 25 ± 5 µM on FMN2. Moreover, the “inhibitory activity against formins tested (in words)” value (shortened to “inhibitory activity”) in the series with human formins is on record as “well tolerated”.
For the molecule `O=C1NC(=S)N(c2cccc(Br)c2)C(=O)C1=Cc1ccc(Cl)o1` [Compound 15], the IC50 at DIAPH2 was found to be 4 ± 1 µM; on INF2 it was 4 ± 1 µM; at FMNL3 it was 7 ± 1 µM; against DIAPH1, 12 ± 6 µM; on FMN2, 11 ± 4 µM. Also, the “inhibitory activity” value in the series on human formins is recorded as “well tolerated”.
Regarding `O=C1NC(=S)N(c2cccc(Br)c2)C(=O)/C1=C/C=C/c1ccco1` [Compound 18], the IC50 against DIAPH2 was 20 µM; at INF2 it was above 40 µM. Further, the “inhibitory activity” value in the series on human formins was “modest activity”.
For the molecule `COc1ccc(N2C(=O)C(=Cc3ccc(Br)o3)C(=O)NC2=S)cc1` [Compound 11], the IC50 is 2 ± 1.4 µM at DIAPH2; 3 ± 2 µM at INF2; 7 ± 1 µM against FMNL3; 8 ± 2 µM against DIAPH1; 10 ± 1 µM on FMN2.
Consider `O=C1NC(=S)N(c2cccc(Br)c2)C(=O)C1=Cc1cccs1` [Compound 7], for which the IC50 against DIAPH2, on INF2, at FMNL3 and on DIAPH1 was above 40 µM throughout. In addition, the “inhibitory activity” value with human formins was “no detectable inhibitory effect”.
For the molecule `O=C1NC(=S)N(c2ccc(Br)cc2)C(=O)C1=Cc1ccco1` [Compound 8], the IC50 is 3 ± 1 µM at DIAPH2; 7 ± 2 µM against INF2; 6 ± 3 µM against FMNL3; 8 ± 3 µM against DIAPH1; 8 ± 4 µM on FMN2. In the series on human formins, the “inhibitory activity” value was “maintained or slightly enhanced inhibitory activity”.
Regarding `CCN1C(=O)C(=Cc2ccco2)C(=O)N(c2cccc(Br)c2)C1=S` [Compound 3], the IC50 was above 40 µM against DIAPH2; above 40 µM against INF2; 40 µM at FMNL3; above 40 µM against DIAPH1; above 40 µM against FMN2.
Regarding `COc1ccc(N2C(=O)C(=Cc3cc(Br)co3)C(=O)NC2=S)cc1` [Compound 13], the IC50 against DIAPH2 is 3.3 ± 0.2 µM; against INF2, 6 ± 2 µM; at FMNL3 it was 4 ± 1 µM.
Take `O=C1C(=Cc2ccco2)C(=O)N(c2cccc(Br)c2)C(=S)N1c1ccccc1` [Compound 4]: the IC50 against DIAPH2 was determined as 2.3 ± 1.7 µM; at INF2, 4 ± 1 µM; against FMNL3, 4 ± 1 µM; against DIAPH1, 11 ± 7 µM; on FMN2, 9 ± 1 µM. In addition, the “fold change in potency (IC50) compared with SMIFH2 (1)” value with human formins is listed as 3–fourfold more potent. Moreover, the “inhibitory activity” value in the series on human formins is reported as “well tolerated”.
Regarding `O=C1NC(=S)N(c2ccccc2)C(=O)C1=Cc1ccco1` [Compound 9], the solubility entry in “solubility in DMSO” was “low solubility; also recorded: poorly soluble in DMSO”. The IC50 was 40 µM against DIAPH2, 30 µM against INF2, above 40 µM at FMNL3 and above 40 µM against DIAPH1. In addition, the “inhibitory activity” value with human formins is reported as “measurable but weak to minimal activity”.
In the case of `CN1C(=O)C(=Cc2ccco2)C(=O)N(c2cccc(Br)c2)C1=S` [Compound 2], the IC50 at DIAPH2 came to 5 ± 5 µM; on INF2, 5 ± 2 µM; against FMNL3, 4 ± 1 µM; against DIAPH1, 13 ± 3 µM; against FMN2, 14 ± 2 µM. The “inhibitory activity” value with human formins is recorded as “well tolerated”.
For the molecule `Cc1ccc(C=C2C(=O)NC(=S)N(c3cccc(Br)c3)C2=O)o1` [Compound 17], the IC50 against DIAPH2, on INF2, against FMNL3, on DIAPH1 and on FMN2 was above 40 µM throughout. The “inhibitory activity” value in the series with human formins is listed as “abolished activity”.
Regarding `COc1ccc(N2C(=O)C(=Cc3ccc(Cl)o3)C(=O)NC2=S)cc1` [Compound 12], the IC50 at DIAPH2 turned out to be 1 ± 0.2 µM; at INF2 it was 2 ± 1 µM; against FMNL3, 3 ± 2 µM; against DIAPH1, 4 ± 1 µM; at FMN2 it was 5 ± 3 µM. The “fold change in potency (IC50) compared with SMIFH2 (1)” value with human formins is given as “two–ninefold”. For the same molecule, in the series with human formins, the “inhibitory activity” value is reported as “most potent inhibitor”.
As for `O=C1NC(=O)N(c2cccc(Br)c2)C(=O)C1=Cc1ccco1` [Compound 5], the IC50 against DIAPH2, at INF2, against FMNL3, against DIAPH1 and against FMN2 was above 40 µM in each case. Also, the “inhibitory activity” value in the series with human formins was “complete loss of inhibitory activity”.
In the case of `COc1ccc(N2C(=O)C(=Cc3ccco3)C(=O)NC2=S)cc1` [Compound 10], the IC50 against DIAPH2 worked out at 12 ± 8 µM; on INF2, 37 ± 16 µM; on FMNL3, 17 ± 6 µM; at DIAPH1 it was 27 ± 12 µM; against FMN2 it was 23 ± 4 µM. Further, the “inhibitory activity” value with human formins is on record as “reduced activity”.
With `O=C1NC(=S)N(c2cccc(Br)c2)C(=O)C1=Cc1ccc[nH]1` [Compound 6], the IC50 on DIAPH2, at INF2, at FMNL3, against DIAPH1 and at FMN2 was above 40 µM throughout. Also, the “inhibitory activity” value in the series on human formins is “no detectable inhibitory effect”.
With `O=C1NC(=S)N(c2cccc(Br)c2)C(=O)C1=Cc1ccco1` [Compound 1, 1-(3-bromophenyl)-5-(furan-2-ylmethylene)-2-thioxodihydropyrimidine-4,6(1H,5H)-dione, reference compound], the IC50 against DIAPH2 was 6 ± 3 µM; at INF2, 10 ± 5 µM; with Drosophila myosin 5, around 2 µM; against FMNL3 it was 21 ± 7 µM; against DIAPH1 it was 30 ± 10 µM; at FMN2 it was 10 ± 3 µM. Further, the IC50 in the series with formin is 10 to 20 µM; in the series on mouse Dia1, 15 µM.
